Assay results as given in the supplement of paper PMC10307832.

Legend:
Assay in all cases: relative viability (nuclei count vs DMSO), 5 days (fraction); higher = more cells survive
Ibrutinib + Tozasertib = compound: C=CC(=O)N1CCC[C@@H](n2nc(-c3ccc(Oc4ccccc4)cc3)c3c(N)ncnc32)C1 [Ibrutinib] + Cc1cc(Nc2cc(N3CCN(C)CC3)nc(Sc3ccc(NC(=O)C4CC4)cc3)n2)n[nH]1 [Tozasertib] (partner 0.1 µM)
How it was run: (§1)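 One day after seeding in 1536-well plates, lung cancer cell lines were dosed by pin tool. Dosing was either single-drug or a fixed anchor-drug dose plus five library-drug doses (not always all listed) in √10 steps. After 5 days, nuclei were stained in one fix-and-stain step and counted on 4× images, and relative viability is the nuclei count of treated wells over that of vehicle wells, given as the median of duplicate plates.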

BMX-IN-1 + Phenformin = compound: C=CC(=O)Nc1cc(-n2c(=O)ccc3cnc4ccc(-c5ccc(NS(C)(=O)=O)cc5)cc4c32)ccc1C [BMX-IN-1] + N=C(N)NC(=N)NCCc1ccccc1 [Phenformin] (partner 250 µM)
How it was run: as §1

BMX-IN-1 + Pemetrexed = compound: C=CC(=O)Nc1cc(-n2c(=O)ccc3cnc4ccc(-c5ccc(NS(C)(=O)=O)cc5)cc4c32)ccc1C [BMX-IN-1] + Nc1nc2[nH]cc(CCc3ccc(C(=O)N[C@@H](CCC(=O)O)C(=O)O)cc3)c2c(=O)[nH]1 [Pemetrexed] (partner 0.2 µM)
How it was run: as §1

PAC-1 + Pemetrexed = compound: C=CCc1cccc(/C=N/NC(=O)CN2CCN(Cc3ccccc3)CC2)c1O [PAC-1] + Nc1nc2[nH]cc(CCc3ccc(C(=O)N[C@@H](CCC(=O)O)C(=O)O)cc3)c2c(=O)[nH]1 [Pemetrexed] (partner 0.2 µM)
How it was run: as §1

Cell Line | relative viability (Ibrutinib + Tozasertib; first compound 0.01581 µM) | relative viability (Ibrutinib + Tozasertib; first compound 0.05 µM) | relative viability (Ibrutinib + Tozasertib; first compound 0.1581 µM) | relative viability (Ibrutinib + Tozasertib; first compound 0.5 µM) | relative viability (BMX-IN-1 + Phenformin; first compound 0.02 µM) | relative viability (BMX-IN-1 + Phenformin; first compound 0.2 µM) | relative viability (BMX-IN-1 + Phenformin; first compound 0.6325 µM) | relative viability (BMX-IN-1 + Phenformin; first compound 2 µM) | relative viability (BMX-IN-1 + Pemetrexed; first compound 0.02 µM) | relative viability (BMX-IN-1 + Pemetrexed; first compound 0.2 µM) | relative viability (BMX-IN-1 + Pemetrexed; first compound 0.6325 µM) | relative viability (BMX-IN-1 + Pemetrexed; first compound 2 µM) | relative viability (PAC-1 + Pemetrexed; first compound 0.02 µM) | relative viability (PAC-1 + Pemetrexed; first compound 0.06325 µM) | relative viability (PAC-1 + Pemetrexed; first compound 0.2 µM) | relative viability (PAC-1 + Pemetrexed; first compound 2 µM) | relative viability (Ibrutinib + Tozasertib; first compound 0.005 µM)
NCI-H1793 | 0.288 | 0.254 | 0.462 | 0.208 | 0.272 | 0.398 | 0.467 | 0.433 | 0.945 | 1.01 | 0.966 | 0.806 | 0.811 | 0.952 | 0.835 | 0.837 | –
EKVX | 0.332 | 0.4 | 0.426 | 0.269 | 0.21 | 0.245 | 0.247 | 0.211 | 0.56 | 0.448 | 0.464 | 0.452 | 0.356 | 0.407 | 0.355 | 0.395 | 0.427
NCI-H2126 | 0.811 | 0.792 | 0.818 | 0.755 | 0.517 | 0.559 | 0.581 | 0.526 | 0.777 | 0.7 | 0.705 | 0.721 | 0.679 | 0.722 | 0.755 | 0.654 | 0.701
NCI-H1993 | 0.529 | 0.541 | 0.566 | 0.524 | 0.438 | 0.525 | 0.453 | 0.492 | 0.65 | 0.669 | 0.645 | 0.622 | 0.636 | 0.565 | 0.59 | 0.589 | 0.594
EPLC-272H | 0.171 | 0.25 | 0.126 | 0.193 | 0.263 | 0.339 | 0.345 | 0.281 | 0.304 | 0.278 | 0.235 | 0.316 | 0.355 | 0.32 | 0.341 | 0.348 | 0.171
